The source made the active and inactive calls.
Tests used:
Escherichia coli [1] = assay: microbe, parasite or virus in culture
Escherichia coli [2] = assay: microbe, parasite or virus in culture; remark: listed apart in the source
[3] = target: T1, Short transient receptor potential channel 4 (Mus musculus, UniProt Q9QUQ5); assay: calcium entry via TRPC4 opening agents – cell-based, HEK293 TRPC4/mu-opioid, Fluo-4 calcium, dose response (AID 434937); format: functional
T1 sequence (Q9QUQ5 whole entry): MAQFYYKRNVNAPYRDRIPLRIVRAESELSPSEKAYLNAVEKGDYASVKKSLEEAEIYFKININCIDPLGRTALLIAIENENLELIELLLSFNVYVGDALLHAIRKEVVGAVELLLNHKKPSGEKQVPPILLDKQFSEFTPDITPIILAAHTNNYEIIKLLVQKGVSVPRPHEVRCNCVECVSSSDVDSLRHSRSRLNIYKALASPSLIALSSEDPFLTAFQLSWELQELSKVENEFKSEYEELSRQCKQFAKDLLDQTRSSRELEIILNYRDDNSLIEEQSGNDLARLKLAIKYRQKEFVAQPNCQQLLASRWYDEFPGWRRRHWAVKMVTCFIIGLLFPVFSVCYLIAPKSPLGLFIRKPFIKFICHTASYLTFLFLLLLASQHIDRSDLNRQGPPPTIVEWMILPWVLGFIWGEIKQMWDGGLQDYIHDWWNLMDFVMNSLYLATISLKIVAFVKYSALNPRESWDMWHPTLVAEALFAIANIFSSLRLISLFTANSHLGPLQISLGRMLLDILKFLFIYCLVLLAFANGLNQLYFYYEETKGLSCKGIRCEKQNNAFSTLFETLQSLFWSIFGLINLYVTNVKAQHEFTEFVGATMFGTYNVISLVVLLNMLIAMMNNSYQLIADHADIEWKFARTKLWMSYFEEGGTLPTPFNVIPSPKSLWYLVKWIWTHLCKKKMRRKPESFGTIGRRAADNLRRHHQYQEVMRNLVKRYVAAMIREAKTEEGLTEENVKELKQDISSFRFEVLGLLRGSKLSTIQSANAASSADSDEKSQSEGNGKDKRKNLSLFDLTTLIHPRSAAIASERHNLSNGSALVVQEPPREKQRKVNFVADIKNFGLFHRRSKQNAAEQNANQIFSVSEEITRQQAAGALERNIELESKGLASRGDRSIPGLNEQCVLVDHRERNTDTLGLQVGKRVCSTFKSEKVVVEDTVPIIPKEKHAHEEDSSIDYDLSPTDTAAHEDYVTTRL

[4] = target: T2, Microphthalmia-associated transcription factor (Homo sapiens, UniProt O75030); assay: reducers of TRPM1 reporter luminescence, concentration series – cell-based, SK-MEL-5, cherry-picked, set 3, MITF inhibitor project, dose response (AID 493073); format: functional;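 also: SK-MEL-5 melanoma cells with luciferase driven by the MITF target TRPM1 promoter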
T2 sequence (O75030 whole entry): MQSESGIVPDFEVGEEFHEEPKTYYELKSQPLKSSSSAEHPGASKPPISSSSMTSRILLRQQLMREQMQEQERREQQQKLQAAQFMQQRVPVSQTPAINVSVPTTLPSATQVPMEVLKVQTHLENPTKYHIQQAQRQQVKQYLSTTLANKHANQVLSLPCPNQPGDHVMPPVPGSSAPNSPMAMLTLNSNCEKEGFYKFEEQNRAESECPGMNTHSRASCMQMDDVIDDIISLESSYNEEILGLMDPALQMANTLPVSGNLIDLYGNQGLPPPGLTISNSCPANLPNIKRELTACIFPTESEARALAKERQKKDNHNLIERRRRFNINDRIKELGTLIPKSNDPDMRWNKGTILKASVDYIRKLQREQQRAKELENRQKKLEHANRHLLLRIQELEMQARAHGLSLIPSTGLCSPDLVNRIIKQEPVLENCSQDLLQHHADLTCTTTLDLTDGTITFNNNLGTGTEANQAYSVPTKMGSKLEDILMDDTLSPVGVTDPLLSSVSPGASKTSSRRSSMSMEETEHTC

[5] = A Cell Based Secondary Assay To Explore Cytotoxicity of Compounds that Sensitize Mycobacterium Tuberculosis to Beta-Lactam Antibiotics.; format: functional
A-375 = assay: MITF: Counter assay: A375 proliferation Measured in Cell-Based System Using Plate Reader - 2084-03_Inhibitor_Dose_DryPowder_Activity. [Related pubchem assays (depositor defined):AID488944]; format: functional; details: Homo sapiens
[6] = target: T3, Orexin/Hypocretin receptor type 1 (Homo sapiens, UniProt O43613); assay: (§1) Fluorescence-based cell-based high throughput dose response assay for antagonists of the orexin 1 receptor (OX1R; HCRTR1). [Related pubchem assays (depositor defined):AID434989, AID435008, AID463079, AID485270, AID492963, AID492964, AID492965, AID493232, AID504717, AID504718]; format: functional
T3 sequence (O43613 whole entry): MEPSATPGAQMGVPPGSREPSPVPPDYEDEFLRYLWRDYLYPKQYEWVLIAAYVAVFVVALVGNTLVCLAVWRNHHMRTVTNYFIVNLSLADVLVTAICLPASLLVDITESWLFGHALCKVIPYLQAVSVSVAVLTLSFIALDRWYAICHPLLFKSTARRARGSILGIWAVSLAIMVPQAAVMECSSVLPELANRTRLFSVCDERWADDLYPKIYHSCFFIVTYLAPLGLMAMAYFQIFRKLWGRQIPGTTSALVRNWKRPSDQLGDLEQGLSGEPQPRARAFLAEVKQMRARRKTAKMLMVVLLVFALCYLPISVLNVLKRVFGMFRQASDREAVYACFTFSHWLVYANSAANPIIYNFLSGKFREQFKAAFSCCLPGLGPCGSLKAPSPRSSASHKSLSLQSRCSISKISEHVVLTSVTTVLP

Jurkat = assay: blockers of NF-kB activation in T cells – Jurkat, luciferase reporter, luminescence, B- and T-cell, dose response (AID 489004); format: functional, cell-based; details: Homo sapiens;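 also: NF-kB luciferase reporter Jurkat cells stimulated with PMA plus ionomycin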
Orexin receptor type 2 [7] = target: T4, Orexin receptor type 2 (Homo sapiens, UniProt O43614); assay: Counterscreen assay for antagonists of the orexin 1 receptor (OX1R; HCRTR1): Fluorescence-based cell-based dose response assay for antagonists of the orexin 2 receptor (OX2R; HCRTR2), run by assay provider.; format: functional
T4 sequence (O43614 whole entry): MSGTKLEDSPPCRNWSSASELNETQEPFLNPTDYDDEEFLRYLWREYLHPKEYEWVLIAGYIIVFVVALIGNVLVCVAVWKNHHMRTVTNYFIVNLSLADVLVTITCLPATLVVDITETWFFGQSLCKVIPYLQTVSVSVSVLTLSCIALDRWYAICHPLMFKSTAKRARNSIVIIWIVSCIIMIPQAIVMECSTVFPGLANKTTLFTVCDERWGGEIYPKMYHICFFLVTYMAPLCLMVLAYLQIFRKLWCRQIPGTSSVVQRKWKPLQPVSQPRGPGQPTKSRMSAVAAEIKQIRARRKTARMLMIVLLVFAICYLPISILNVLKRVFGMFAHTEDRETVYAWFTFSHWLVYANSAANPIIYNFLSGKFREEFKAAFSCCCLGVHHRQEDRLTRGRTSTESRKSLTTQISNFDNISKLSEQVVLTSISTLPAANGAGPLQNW

[8] = target: T3, Orexin/Hypocretin receptor type 1; assay: as §1, with “Homogeneous Time Resolved Fluorescence (HTRF)-based” for “Fluorescence-based”; format: functional
Orexin receptor type 2 [9] = target: T4, Orexin receptor type 2; assay: Counterscreen assay for antagonists of the orexin 1 receptor (OX1R; HCRTR1): Homogeneous Time Resolved Fluorescence (HTRF)-based cell-based dose response assay for antagonists of the orexin 2 receptor (OX2R; HCRTR2), run by assay provider.; format: functional
[10] = (§2) Counterscreen for antagonists of the orexin 1 receptor (OX1R; HCRTR1): Fluorescence-based cell-based high throughput dose response assay to identify antagonists of the parental CHO cell line. [Related pubchem assays (depositor defined):AID434989, AID435008, AID463079, AID485270, AID492963, AID492964, AID492965, AID493232, AID504699, AID504701]; format: functional
[11] = HEK-293T viability loss, compound-treated – cell-based, uHTS hits, cytotoxicity control for B/T-cell NF-kB inhibitor project, dose response (AID 489019); format: functional;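 also: IC50 reflects cytotoxicity as loss of cell viability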
BJ [12] = assay: BJ-TERT-LT-ST fibroblast viability loss – cell-based, RAS-independent, luminescence, dose response (AID 1935); format: functional; details: Homo sapiens;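 also: BJ fibroblasts immortalized with TERT plus LT and ST oncogenes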
CHO-K1 = assay: as §2, with “Homogeneous time resolved fluorescence (HTRF)-based” for “Fluorescence-based”, “cell-based” for “cell-based high throughput”, “CHO-K1” for “CHO”; format: functional; details: Cricetulus griseus;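 also: potency for inhibition of ATP-stimulated IP1 production as antagonists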
[13] = DRD fibroblast viability loss – cell-based, non-viral oncogenic, luminescence, dose response (AID 1934); format: functional; details: Homo sapiens
BJ [14] = assay: BJ-TERT fibroblast viability loss – cell-based, RAS-independent, luminescence, dose response (AID 1933); format: functional; details: Homo sapiens
BJ [15] = assay: cells; format: functional, cell-based; details: Homo sapiens
Cytochrome P450 2C9 = Cytochrome P450 2C9 (Homo sapiens, UniProt P11712)
Sequence of Cytochrome P450 2C9 (P11712 whole entry): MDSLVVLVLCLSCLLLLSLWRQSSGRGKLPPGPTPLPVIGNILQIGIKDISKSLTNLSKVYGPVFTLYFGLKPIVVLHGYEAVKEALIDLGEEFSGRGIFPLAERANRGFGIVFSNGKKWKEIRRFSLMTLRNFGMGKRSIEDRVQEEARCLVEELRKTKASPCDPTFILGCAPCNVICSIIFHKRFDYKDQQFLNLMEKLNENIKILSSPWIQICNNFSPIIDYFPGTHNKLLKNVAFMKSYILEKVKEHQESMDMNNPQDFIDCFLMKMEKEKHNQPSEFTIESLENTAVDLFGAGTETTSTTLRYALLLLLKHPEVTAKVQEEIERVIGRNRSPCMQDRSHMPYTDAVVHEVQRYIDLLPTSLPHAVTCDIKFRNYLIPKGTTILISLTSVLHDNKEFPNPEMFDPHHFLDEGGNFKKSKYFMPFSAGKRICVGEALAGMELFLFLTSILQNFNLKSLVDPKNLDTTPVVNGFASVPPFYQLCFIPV

Cytochrome P450 2C19 = Cytochrome P450 2C19 (Homo sapiens, UniProt P33261); assay: Cytochrome panel assay with activity outcomes. Panel member name: p450-cyp2c19 Compounds with AC50 equal or less than 10 uM are considered active; format: functional; details: read-out: AC50
Sequence of Cytochrome P450 2C19 (P33261 whole entry): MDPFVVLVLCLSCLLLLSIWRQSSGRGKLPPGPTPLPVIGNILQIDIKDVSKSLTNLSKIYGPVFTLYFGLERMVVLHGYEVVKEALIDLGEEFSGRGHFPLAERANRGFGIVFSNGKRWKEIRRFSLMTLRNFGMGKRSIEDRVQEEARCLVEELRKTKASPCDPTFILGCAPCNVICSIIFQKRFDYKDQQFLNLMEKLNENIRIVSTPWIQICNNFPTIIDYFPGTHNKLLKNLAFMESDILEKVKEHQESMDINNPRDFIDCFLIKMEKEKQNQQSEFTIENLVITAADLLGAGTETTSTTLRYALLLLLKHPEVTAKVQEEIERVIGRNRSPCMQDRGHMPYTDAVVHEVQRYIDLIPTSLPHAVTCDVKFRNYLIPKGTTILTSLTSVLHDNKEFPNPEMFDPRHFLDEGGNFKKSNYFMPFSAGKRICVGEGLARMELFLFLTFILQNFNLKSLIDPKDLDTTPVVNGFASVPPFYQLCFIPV

Cytochrome P450 2D6 = Cytochrome P450 2D6 (Homo sapiens, UniProt P10635);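 also: CYP2D6 member of a cytochrome P450 panel assay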
Sequence of Cytochrome P450 2D6 (P10635 whole entry): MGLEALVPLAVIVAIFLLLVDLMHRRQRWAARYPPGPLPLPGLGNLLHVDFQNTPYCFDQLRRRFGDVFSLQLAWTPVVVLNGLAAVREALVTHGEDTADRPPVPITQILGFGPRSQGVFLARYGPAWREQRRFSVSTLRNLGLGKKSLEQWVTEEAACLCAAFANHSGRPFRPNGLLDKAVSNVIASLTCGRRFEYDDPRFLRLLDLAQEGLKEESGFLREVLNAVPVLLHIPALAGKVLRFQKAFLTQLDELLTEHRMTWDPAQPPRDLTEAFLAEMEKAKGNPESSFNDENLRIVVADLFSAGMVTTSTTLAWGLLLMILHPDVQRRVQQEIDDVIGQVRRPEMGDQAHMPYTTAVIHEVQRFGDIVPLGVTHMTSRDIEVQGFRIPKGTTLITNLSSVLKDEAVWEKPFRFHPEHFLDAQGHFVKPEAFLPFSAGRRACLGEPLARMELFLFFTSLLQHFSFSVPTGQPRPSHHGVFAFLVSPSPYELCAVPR

[16] = target: 5-hydroxytryptamine receptor 5A (Homo sapiens, UniProt P47898); assay: Counterscreen for agonists of OPRM1-OPRD1 heterodimerization: luminescence-based cell-based high throughput dose response assay to identify agonists of 5-hydroxytryptamine (serotonin) 5A receptor (HTR5A). [Related pubchem assays (depositor defined):AID504326, AID504355, AID504692, AID504904, AID504905]; format: functional
Sequence of 5-hydroxytryptamine receptor 5A (P47898 whole entry): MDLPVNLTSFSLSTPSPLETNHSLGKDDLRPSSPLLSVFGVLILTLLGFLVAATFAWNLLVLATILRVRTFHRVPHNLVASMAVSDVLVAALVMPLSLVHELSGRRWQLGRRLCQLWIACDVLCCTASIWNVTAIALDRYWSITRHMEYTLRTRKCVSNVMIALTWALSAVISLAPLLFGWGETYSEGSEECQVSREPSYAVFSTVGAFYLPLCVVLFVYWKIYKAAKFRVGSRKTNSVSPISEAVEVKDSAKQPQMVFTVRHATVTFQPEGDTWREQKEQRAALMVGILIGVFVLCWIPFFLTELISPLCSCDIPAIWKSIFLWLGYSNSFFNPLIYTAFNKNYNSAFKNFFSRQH

Mu-type opioid receptor = Mu-type opioid receptor (Homo sapiens, UniProt P35372); assay: (§3) Counterscreen for agonists of heterodimerization of the mu 1 (OPRM1) and delta 1 (OPRD1) opioid receptors: Luminescence-based cell-based high throughput dose response assay to identify agonists of OPRM1 homodimerization.; format: functional
Sequence of Mu-type opioid receptor (P35372 whole entry): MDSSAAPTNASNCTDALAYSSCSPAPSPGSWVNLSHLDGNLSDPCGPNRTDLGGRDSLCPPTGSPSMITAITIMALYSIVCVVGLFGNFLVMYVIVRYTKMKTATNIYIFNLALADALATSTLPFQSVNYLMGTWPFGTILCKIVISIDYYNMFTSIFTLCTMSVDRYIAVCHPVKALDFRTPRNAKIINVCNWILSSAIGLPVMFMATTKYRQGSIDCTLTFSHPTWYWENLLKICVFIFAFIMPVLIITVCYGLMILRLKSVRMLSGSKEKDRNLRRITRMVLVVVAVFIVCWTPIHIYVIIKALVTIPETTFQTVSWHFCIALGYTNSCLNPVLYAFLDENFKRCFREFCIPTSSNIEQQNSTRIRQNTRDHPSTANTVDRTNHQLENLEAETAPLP

[17] = target: T1, Short transient receptor potential channel 4; assay: block of DAMGO-driven TRPC4 calcium entry – cell-based, HEK293 TRPC4/mu-opioid, Fluo-4 calcium, dose response (AID 434942); format: functional;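 also: potency of inhibitors blocking the TRPC4 calcium response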
[18] = target: Delta-type opioid receptor (Homo sapiens, UniProt P41143); assay: as §3, with “of OPRD1” for “of OPRM1”, “homodimerization. [Related pubchem assays (depositor defined):AID504326, AID504355, AID504692, AID504904, AID504905]” for “homodimerization.”; format: functional
Sequence of Delta-type opioid receptor (P41143 whole entry): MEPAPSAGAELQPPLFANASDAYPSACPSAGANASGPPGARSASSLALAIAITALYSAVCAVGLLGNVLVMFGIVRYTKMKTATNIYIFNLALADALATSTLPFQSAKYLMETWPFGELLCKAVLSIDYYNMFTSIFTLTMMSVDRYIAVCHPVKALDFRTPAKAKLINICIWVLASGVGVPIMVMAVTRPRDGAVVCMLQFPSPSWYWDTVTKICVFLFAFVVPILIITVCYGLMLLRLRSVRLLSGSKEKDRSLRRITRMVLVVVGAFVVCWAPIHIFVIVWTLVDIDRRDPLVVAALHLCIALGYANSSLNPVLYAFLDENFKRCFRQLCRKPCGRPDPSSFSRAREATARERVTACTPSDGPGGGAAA

[19] = target: Peroxisome proliferator-activated receptor gamma/Nuclear receptor coactivator 3 (Homo sapiens, UniProt P37231); assay: (§4) TR-FRET dose response biochemical High Throughput Screening assay for agonists of the steroid receptor coactivator 3 (SRC-3) recruitment by the peroxisome proliferator-activated receptor gamma (PPAR gamma): non-selective agonists. [Related pubchem assays: 1301 (Confirmation screen.), 1048 (Primary screen.)]; format: functional
Sequence of Peroxisome proliferator-activated receptor gamma/Nuclear receptor coactivator 3 (P37231 whole entry): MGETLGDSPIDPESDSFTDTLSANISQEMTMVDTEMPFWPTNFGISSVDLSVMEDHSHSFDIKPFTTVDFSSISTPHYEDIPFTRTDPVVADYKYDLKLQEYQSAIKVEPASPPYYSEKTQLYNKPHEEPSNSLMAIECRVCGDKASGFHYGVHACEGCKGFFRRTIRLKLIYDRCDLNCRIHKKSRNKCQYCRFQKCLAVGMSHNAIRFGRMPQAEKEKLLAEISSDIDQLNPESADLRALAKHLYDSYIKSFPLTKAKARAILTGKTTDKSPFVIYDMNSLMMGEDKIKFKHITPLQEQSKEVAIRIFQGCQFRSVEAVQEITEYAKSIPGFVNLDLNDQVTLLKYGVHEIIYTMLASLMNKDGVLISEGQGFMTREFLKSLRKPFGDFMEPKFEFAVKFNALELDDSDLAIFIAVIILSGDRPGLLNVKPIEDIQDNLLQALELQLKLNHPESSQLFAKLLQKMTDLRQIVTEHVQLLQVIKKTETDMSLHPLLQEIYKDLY
Sequence of Peroxisome proliferator-activated receptor gamma/Nuclear receptor coactivator 3 (Q9Y6Q9 whole entry, further chain): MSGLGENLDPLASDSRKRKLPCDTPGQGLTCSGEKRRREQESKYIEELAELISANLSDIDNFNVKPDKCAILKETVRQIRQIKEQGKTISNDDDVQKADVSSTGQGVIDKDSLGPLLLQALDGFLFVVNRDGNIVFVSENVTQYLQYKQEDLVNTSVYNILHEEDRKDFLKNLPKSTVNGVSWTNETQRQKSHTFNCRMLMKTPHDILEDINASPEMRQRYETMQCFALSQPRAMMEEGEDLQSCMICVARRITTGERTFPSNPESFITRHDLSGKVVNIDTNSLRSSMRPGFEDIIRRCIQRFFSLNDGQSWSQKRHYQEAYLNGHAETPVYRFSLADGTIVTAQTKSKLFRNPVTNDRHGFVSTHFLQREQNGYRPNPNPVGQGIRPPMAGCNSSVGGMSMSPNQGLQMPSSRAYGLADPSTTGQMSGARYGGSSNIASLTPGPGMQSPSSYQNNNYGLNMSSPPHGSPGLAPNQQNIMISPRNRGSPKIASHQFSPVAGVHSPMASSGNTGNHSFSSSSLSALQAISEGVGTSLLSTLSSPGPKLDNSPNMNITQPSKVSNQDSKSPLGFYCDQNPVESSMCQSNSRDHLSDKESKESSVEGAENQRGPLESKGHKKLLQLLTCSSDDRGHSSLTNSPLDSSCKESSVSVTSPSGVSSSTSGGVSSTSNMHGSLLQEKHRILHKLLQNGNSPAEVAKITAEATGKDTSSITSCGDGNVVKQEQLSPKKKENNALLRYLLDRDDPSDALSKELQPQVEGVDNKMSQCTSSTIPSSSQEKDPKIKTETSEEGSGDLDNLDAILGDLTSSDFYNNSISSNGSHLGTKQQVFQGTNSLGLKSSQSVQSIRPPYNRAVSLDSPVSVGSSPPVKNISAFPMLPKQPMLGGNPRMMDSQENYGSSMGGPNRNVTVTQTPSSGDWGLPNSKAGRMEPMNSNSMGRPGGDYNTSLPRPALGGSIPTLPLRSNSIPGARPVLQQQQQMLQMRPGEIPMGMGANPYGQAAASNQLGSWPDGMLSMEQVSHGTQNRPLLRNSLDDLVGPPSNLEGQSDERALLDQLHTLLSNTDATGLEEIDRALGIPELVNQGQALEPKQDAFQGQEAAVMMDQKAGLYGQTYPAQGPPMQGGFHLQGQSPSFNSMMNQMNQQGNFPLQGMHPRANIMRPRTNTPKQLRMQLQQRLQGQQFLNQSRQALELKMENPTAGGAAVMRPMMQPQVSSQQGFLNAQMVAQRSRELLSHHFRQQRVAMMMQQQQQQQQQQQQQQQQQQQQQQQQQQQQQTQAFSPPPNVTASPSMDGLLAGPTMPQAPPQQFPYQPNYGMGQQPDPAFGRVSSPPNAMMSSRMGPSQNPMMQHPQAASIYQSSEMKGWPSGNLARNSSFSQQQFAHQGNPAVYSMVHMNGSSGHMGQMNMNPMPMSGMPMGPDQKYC

[20] = target: Peroxisome proliferator-activated receptor gamma/Nuclear receptor coactivator 1 (Homo sapiens, UniProt P37231); assay: as §4, with “1 (SRC-1)” for “3 (SRC-3)”, “assays (depositor defined):AID1300, AID1808, AID504735, AID631]” for “assays: 1301 (Confirmation screen.), 1048 (Primary screen.)]”; format: protein assay
Vero = assay: cells; format: functional, cell-based; details: Chlorocebus sabaeus
[21] = target: Peroxisome proliferator-activated receptor gamma/Nuclear receptor coactivator 2 (Homo sapiens, UniProt P37231); assay: TR-FRET dose response biochemical High Throughput Screening assay for agonists of the steroid receptor coactivator 2 (SRC-2) recruitment by the peroxisome proliferator-activated receptor gamma (PPAR gamma): non-selective agonists. [Related pubchem assays: 1297, 1032 ]; format: functional

With `CC(C)(C)OC(=O)N1CCCC(C(=O)Nc2cccc(C(=O)NCCc3ccccc3)c2)C1` (stereo not given) the AC50 (Escherichia coli [1]) was 322 µM (active) and the AC50 (Escherichia coli [2]) was 21.1 µM (active).

With `CC(C)C1CC(CCNCc2ccc(N(C)C)cc2)(c2ccccc2)CCO1` (stereo not given) the EC50 [3] was 6.68 µM (active), the AC50 [4] was 11.1 µM (active) and the CC50 [5] was 33.3 µM (active). For the same compound, the AC50 (A-375) was 20.7 µM (active).

For `O=C(NCc1ccccc1)c1ccc(CS(=O)(=O)c2ccccc2)o1`, the AC50 (Escherichia coli [2]) was 28.6 µM (active).

With `Cc1nn(-c2ccccc2)c(C)c1/C=N/NC(=O)c1cc(-c2cccs2)[nH]n1` the IC50 [6] was 3.99 µM (active), the IC50 (Jurkat) was 10.3 µM (active) and the IC50 (Orexin receptor type 2 [7]) was 37 µM (inactive). The IC50 [8] was 2.99 µM (active), the IC50 (Orexin receptor type 2 [9]) was > 50 µM (inactive) and the IC50 [10] was > 49.7 µM (inactive). The IC50 [11] was 9.45 µM (active), the EC50 (BJ [12]) was 0.601 µM (inconclusive) and the IC50 (CHO-K1) was > 66.2 µM (inactive). For the same compound, the EC50 [13] was 0.644 µM (inconclusive), the EC50 (BJ [14]) was 0.66 µM (inconclusive) and the EC50 (BJ [15]) was 0.79 µM (active).

With `O=C(Nc1nc2ccc(F)cc2s1)C1CCCO1` (stereo not given) the AC50 (Cytochrome P450 2C9) was 39.8 µM (inconclusive), the AC50 (Cytochrome P450 2C19) was 25.1 µM (inconclusive) and the AC50 (Cytochrome P450 2D6) was “inconclusive”.

In the case of `COc1ccc2c(c1)C=C(CN1CCC(CO)(CCc3ccccc3)CC1)CO2`, the EC50 [16] was > 92.5 µM (inactive), the EC50 (Mu-type opioid receptor) was 85.9 µM (inactive) and the EC50 [17] was 2.11 µM (active). The EC50 [18] was 67.7 µM (inactive).

With `Sc1nnc(-c2ccccn2)n1/N=C/c1ccc(-c2ccccc2Br)o1` the EC50 [19] was > 79.4 µM (not active), the EC50 [20] was 2.75 µM (active) and the IC50 (Vero) was 23.4 µM (active). For the same compound, the EC50 [21] was 2.83 µM (active).

Source: ChEMBL document CHEMBL1201862, “PubChem BioAssay data set” (2004)
